We go through 29 compounds from patent US20240246952A1, “SMALL MOLECULE MODULATORS OF GLUCOCEREBROSIDASE ACTIVITY AND USES THEREOF” (Vanqua Bio, Inc., priority 2021, published 2024).

Some results are limits rather than exact numbers.

As a reminder, the EC50 is the midpoint of the concentration-response curve. A low value points to higher potency in that assay.

For this assay, the target named is T1, GCase (Homo sapiens, UniProt P04062).
T1 construct: endogenous in cells; host or cells: HeLa cells
T1 sequence (P04062 40-536): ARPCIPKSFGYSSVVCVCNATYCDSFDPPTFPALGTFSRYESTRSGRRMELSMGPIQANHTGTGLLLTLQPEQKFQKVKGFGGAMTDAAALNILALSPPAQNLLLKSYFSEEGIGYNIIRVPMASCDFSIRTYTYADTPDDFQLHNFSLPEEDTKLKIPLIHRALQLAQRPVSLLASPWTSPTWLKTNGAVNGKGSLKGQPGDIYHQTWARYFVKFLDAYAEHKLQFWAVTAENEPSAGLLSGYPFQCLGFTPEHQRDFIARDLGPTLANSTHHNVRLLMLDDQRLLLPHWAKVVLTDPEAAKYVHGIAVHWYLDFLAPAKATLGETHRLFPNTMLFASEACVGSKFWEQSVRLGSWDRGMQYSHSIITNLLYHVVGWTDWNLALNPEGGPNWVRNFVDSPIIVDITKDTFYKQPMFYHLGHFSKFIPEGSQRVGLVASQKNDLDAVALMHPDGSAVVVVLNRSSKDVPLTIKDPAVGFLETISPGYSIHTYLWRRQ
Nature of the assay: activation of GCase in a live cell PFB assay in HELA cells. The assay is classed as cell-based. As to the method: Exemplary compounds were evaluated for activation of GCase in a live cell PFB assay in HELA cells (essentially as described in Ysselstein et al., “LRRK2 kinase activity regulates lysosomal glucocerebrosidase in neurons derived from Parkinson's disease patients” Nature Communications (2019) 10:5570).

With `CCn1ncc2ncc(N3CCCC(c4nnc(-c5ccccc5)s4)C3)nc21` (centres unmarked) [Compound 15, 2-(1-(1-Ethyl-1H-pyrazolo[3,4-b]pyrazin-6-yl)piperidin-3-yl)-5-phenyl-1,3,4-thiadiazole], the EC50 lay within 50 to 100 µM.
Regarding `FC(F)Cn1ncc2ncc(N3CCCC(c4nnc(-c5cccc(C(F)(F)F)n5)s4)C3)nc21` (centres unmarked) [Compound 2, 2-(5-{1-[1-(2,2-difluoroethyl)pyrazolo[3,4-b]pyrazin-6-yl]piperidin-3-yl}-1,3,4-thiadiazol-2-yl)-6-(trifluoromethyl)pyridine], the EC50 was in the range of 10 to 50 µM.
Then `Fc1ccccc1-c1nnc(C2CCCN(c3cnc4ccccc4n3)C2)s1` (centres unmarked) [Compound 4, 2-(2-fluorophenyl)-5-(1-(quinoxalin-2-yl)piperidin-3-yl)-1,3,4-thiadiazole], with 10 to 50 µM.
On to `FC(F)Cn1ncc2ncc(N3C[C@@H]4[C@H](C3)[C@H]4c3nnc(-c4cccnc4C(F)(F)F)s3)nc21` [Compound 23, 2-((1R,5S,6r)-3-(1-(2,2-Difluoroethyl)-1H-pyrazolo[3,4-b]pyrazin-6-yl)-3-azabicyclo[3.1.0]hexan-6-yl)-5-(2-(trifluoromethyl)pyridin-3-yl)-1,3,4-thiadiazole], for which the EC50 was more than 100 µM.
Then `O=C(c1ccc2cc[nH]c2c1)N1CCCC(c2nnc(-c3ccccc3C(F)(F)F)s2)C1` (centres unmarked) [Compound 9, (1H-Indol-6-yl)(3-(5-(2-(trifluoromethyl)phenyl)-1,3,4-thiadiazol-2-yl)piperidin-1-yl)methanone], with 10 to 50 µM.
`c1ccc(-c2nnc(C3CCCN(c4cnc5ccccc5n4)C3)s2)cc1` (centres unmarked) [Compound 11, 2-Phenyl-5-(1-(quinoxalin-2-yl)piperidin-3-yl)-1,3,4-thiadiazole] displayed an EC50 of 10 to 50 µM.
Then `FC(F)Cn1ncc2ncc(N3CCCC(c4nnc(-c5ccccc5)s4)C3)nc21` (centres unmarked) [Compound 19, 2-(1-(1-(2,2-Difluoroethyl)-1H-pyrazolo[3,4-b]pyrazin-6-yl)piperidin-3-yl)-5-phenyl-1,3,4-thiadiazole], with less than 10 µM; and `FC(F)Cn1ncc2ncc(N3CCCC(c4nnc(-c5ccc(C(F)(F)F)nc5)s4)C3)nc21` (centres unmarked) [Compound 21, 2-(1-(1-(2,2-Difluoroethyl)-1H-pyrazolo[3,4-b]pyrazin-6-yl)piperidin-3-yl)-5-(6-(trifluoromethyl)pyridin-3-yl)-1,3,4-thiadiazole], with less than 10 µM.
The result for `FC(F)(F)c1cccc(-c2nnc(C3(F)CCCN(c4cnc5ccccc5n4)C3)s2)n1` (centres unmarked) [Compound 13, 2-(3-Fluoro-3-{5-[6-(trifluoromethyl)pyridin-2-yl]-1,3,4-thiadiazol-2-yl}piperidin-1-yl)quinoxaline] reads 10 to 50 µM; that for `O=C(c1ccc2ccn(C3COC3)c2c1)N1CCCC(F)(c2nnc(-c3cccc(C(F)(F)F)n3)s2)C1` (centres unmarked) [Compound 26, (3-Fluoro-3-(5-(6-(trifluoromethyl)pyridin-2-yl)-1,3,4-thiadiazol-2-yl)piperidin-1-yl)(1-(oxetan-3-yl)-1H-indol-6-yl)methanone], 10 to 50 µM.
Take `CCn1cnc2ncc(N3CCCC(c4nnc(-c5ccccc5)s4)C3)nc21` (centres unmarked) [Compound 20, 2-(1-(1-Ethyl-1H-imidazo[4,5-b]pyrazin-6-yl)piperidin-3-yl)-5-phenyl-1,3,4-thiadiazole]: the EC50 was less than 10 µM.
The result for `FC(F)(F)c1cccc(-c2nnc(C3(F)CCCN(c4cnc5cnn(CC6COC6)c5n4)C3)s2)n1` (centres unmarked) [Compound 27, 2-(3-Fluoro-1-(1-(oxetan-3-ylmethyl)-1H-pyrazolo[3,4-b]pyrazin-6-yl)piperidin-3-yl)-5-(6-(trifluoromethyl)pyridin-2-yl)-1,3,4-thiadiazole] reads less than 10 µM.
Then `Fc1ccccc1-c1nnc(C2CCCN(c3ncc4ccccc4n3)C2)s1` (centres unmarked) [Compound 10, 2-(2-Fluorophenyl)-5-(1-(quinazolin-2-yl)piperidin-3-yl)-1,3,4-thiadiazole], with 10 to 50 µM; and `CCn1ccc2ncc(N3CCCC(c4nnc(-c5ccccc5)s4)C3)nc21` (centres unmarked) [Compound 3, 2-(1-(5-ethyl-5H-pyrrolo[2,3-b]pyrazin-3-yl)piperidin-3-yl)-5-phenyl-1,3,4-thiadiazole], with 10 to 50 µM.
Then `FC(F)(F)Oc1ccccc1-c1nnc(C2CCCN(c3cncc(-c4nncs4)n3)C2)s1` (centres unmarked) [Compound 22, 2-(1-(6-(1,3,4-thiadiazol-2-yl)pyrazin-2-yl)piperidin-3-yl)-5-(2-(trifluoromethoxy)phenyl)-1,3,4-thiadiazole], with less than 10 µM; and `O=C(c1ccc2cc[nH]c2c1)N1CCCC(c2nnc(-c3cccnc3C(F)(F)F)s2)C1` (centres unmarked) [Compound 17, (1H-Indol-6-yl)(3-(5-(2-(trifluoromethyl)pyridin-3-yl)-1,3,4-thiadiazol-2-yl)piperidin-1-yl)methanone], with 10 to 50 µM; and `Cc1nnc(C2CCCN(c3ncc4ccccc4n3)C2)s1` (centres unmarked) [Compound 16, 2-methyl-5-(1-(quinazolin-2-yl)piperidin-3-yl)-1,3,4-thiadiazole], with more than 100 µM.
Turning to `COc1ncncc1-c1nnc(C2CCCN(c3cnc4ccccc4n3)C2)s1` (centres unmarked) [Compound 18, 2-(4-Methoxypyrimidin-5-yl)-5-(1-(quinoxalin-2-yl)piperidin-3-yl)-1,3,4-thiadiazole], the EC50 was 10 to 50 µM.
Then `FC(F)(F)c1cccc(-c2nnc(C3(F)CCCN(c4cnc5cnn(C6COC6)c5n4)C3)s2)n1` (centres unmarked) [Compound 24, 2-(3-fluoro-1-(1-(oxetan-3-yl)-1H-pyrazolo[3,4-b]pyrazin-6-yl)piperidin-3-yl)-5-(6-(trifluoromethyl)pyridin-2-yl)-1,3,4-thiadiazole], with more than 100 µM.
Then `c1ccc(-c2nnc(C3CCCN(c4ncc5ccccc5n4)C3)s2)cc1` (centres unmarked) [Compound 14, 2-Phenyl-5-(1-(quinazolin-2-yl)piperidin-3-yl)-1,3,4-thiadiazole], with 10 to 50 µM; and `FC(F)Cn1ncc2ncc(N3C[C@@H]4[C@H](C3)[C@H]4c3nnc(-c4ccccc4)s3)nc21` [Compound 28, 2-((1R,5S,6R)-3-(1-(2,2-Difluoroethyl)-1H-pyrazolo[3,4-b]pyrazin-6-yl)-3-azabicyclo[3.1.0]hexan-6-yl)-5-phenyl-1,3,4-thiadiazole], with 10 to 50 µM.
The result for `O=C(c1ccc2ccn(CC3COC3)c2c1)N1CCCC(F)(c2nnc(-c3cccc(C(F)(F)F)n3)s2)C1` (centres unmarked) [Compound 25, (3-Fluoro-3-(5-(6-(trifluoromethyl)pyridin-2-yl)-1,3,4-thiadiazol-2-yl)piperidin-1-yl)(1-(oxetan-3-ylmethyl)-1H-indol-6-yl)methanone] reads 10 to 50 µM; that for `FC(F)(F)Cn1ncc2ncc(N3CCCC(F)(c4nnc(-c5cccc(C(F)(F)F)n5)s4)C3)nc21` (centres unmarked) [Compound 6, 2-(3-Fluoro-1-(1-(2,2,2-trifluoroethyl)-1H-pyrazolo[3,4-b]pyrazin-6-yl)piperidin-3-yl)-5-(6-(trifluoromethyl)pyridin-2-yl)-1,3,4-thiadiazole], 10 to 50 µM; that for `c1ccc(-c2nnc(C3CCCN(c4cncc(-c5nncs5)n4)C3)s2)cc1` (centres unmarked) [Compound 1, 2-[3-(5-phenyl-1,3,4-thiadiazol-2-yl)piperidin-1-yl]-6-(1,3,4-thiadiazol-2-yl)pyrazine], 10 to 50 µM.
`FC(F)(F)c1cccc(-c2nnc(C3(F)CCCN(c4cncc(-c5nncs5)n4)C3)s2)n1` (centres unmarked) [Compound 8, 2-(3-Fluoro-3-{5-[6-(trifluoromethyl)pyridin-2-yl]-1,3,4-thiadiazol-2-yl}piperidin-1-yl)-6-(1,3,4-thiadiazol-2-yl)pyrazine] yielded an EC50 of 10 to 50 µM.
Then `FC(F)Cn1ncc2ncc(N3CCCC(c4nnc(-c5cccnc5C(F)(F)F)s4)C3)nc21` (centres unmarked) [Compound 7, 2-(1-(1-(2,2-Difluoroethyl)-1H-pyrazolo[3,4-b]pyrazin-6-yl)piperidin-3-yl)-5-(2-(trifluoromethyl)pyridin-3-yl)-1,3,4-thiadiazole], with 10 to 50 µM.
Compound `O=C(c1ccc2cc[nH]c2c1)N1CCCC(c2nnc(-c3ccccc3)s2)C1` (centres unmarked) [Compound 12, (1H-Indol-6-yl)(3-(5-phenyl-1,3,4-thiadiazol-2-yl)piperidin-1-yl)methanone] returned an EC50 of 10 to 50 µM.
Then `FC(F)Cn1ncc2ncc(N3CCCC(c4nnc(-c5ccnc(C(F)(F)F)c5)s4)C3)nc21` (centres unmarked) [Compound 5, 2-(1-(1-(2,2-difluoroethyl)-1H-pyrazolo[3,4-b]pyrazin-6-yl)piperidin-3-yl)-5-(2-(trifluoromethyl)pyridin-4-yl)-1,3,4-thiadiazole], with less than 10 µM.
Then `FC(F)(F)Oc1ccccc1-c1nnc(C2(F)CCCN(c3cncc(-c4nncs4)n3)C2)s1` (centres unmarked) [Compound 29, 2-(1-(6-(1,3,4-Thiadiazol-2-yl)pyrazin-2-yl)-3-fluoropiperidin-3-yl)-5-(2-(trifluoromethoxy)phenyl)-1,3,4-thiadiazole], with 10 to 50 µM.
